Measurements reported in PubChem BioAssay AID2060611 (Molecular Pharmacology Branch, DTP, NCI, 2025).
Several values for one entry are separate records, joined by “and”; a condition that tells them apart may be missing. Equal entries are not always repeated.

System: 628569-122-R-J1-PDC complex spheroid viability
Experiment: Anticancer human tumor 628569-122-R-J1-PDC patient-derived head and neck squamous carcinoma cell line growth inhibition [CLK]
Conditions: for viability, T/C: stronger effect = lower value
Procedure, shortened: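 Multi-cell-type spheroids combined patient-derived tumor cells with HUVEC endothelial cells and human mesenchymal stem cells. Paired agents were dosed in half-log steps down from about clinical Cmax, or from 10 microM where Cmax was unknown.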

[1] = curve of first compound, second compound 0.0316 µM
[2] = curve of first compound, second compound 0.1 µM
[3] = curve of first compound, second compound 0.316 µM
[4] = curve of first compound, second compound 1 µM
[5] = curve of first compound, second compound 3.16 µM
[6] = curve of first compound, second compound 10 µM
[7] = second compound 0.0316 µM, first compound 0.0316 µM
[8] = second compound 0.0316 µM, first compound 0.1 µM
[9] = second compound 0.0316 µM, first compound 0.316 µM
[10] = second compound 0.0316 µM, first compound 1 µM
[11] = second compound 0.0316 µM, first compound 3.16 µM
[12] = second compound 0.0316 µM, first compound 10 µM
[13] = second compound 0.1 µM, first compound 0.0316 µM
[14] = second compound 0.1 µM, first compound 0.1 µM
[15] = second compound 0.1 µM, first compound 0.316 µM
[16] = second compound 0.1 µM, first compound 1 µM
[17] = second compound 0.1 µM, first compound 3.16 µM
[18] = second compound 0.1 µM, first compound 10 µM
[19] = second compound 0.316 µM, first compound 0.0316 µM
[20] = second compound 0.316 µM, first compound 0.1 µM
[21] = second compound 0.316 µM, first compound 0.316 µM
[22] = second compound 0.316 µM, first compound 1 µM
[23] = second compound 0.316 µM, first compound 3.16 µM
[24] = second compound 0.316 µM, first compound 10 µM
[25] = second compound 1 µM, first compound 0.0316 µM
[26] = second compound 1 µM, first compound 0.1 µM
[27] = second compound 1 µM, first compound 0.316 µM
[28] = second compound 1 µM, first compound 1 µM
[29] = second compound 1 µM, first compound 3.16 µM
[30] = second compound 1 µM, first compound 10 µM
[31] = second compound 3.16 µM, first compound 0.0316 µM
[32] = second compound 3.16 µM, first compound 0.1 µM
[33] = second compound 3.16 µM, first compound 0.316 µM
[34] = second compound 3.16 µM, first compound 1 µM
[35] = second compound 3.16 µM, first compound 3.16 µM
[36] = second compound 3.16 µM, first compound 10 µM
[37] = second compound 10 µM, first compound 0.0316 µM
[38] = second compound 10 µM, first compound 0.1 µM
[39] = second compound 10 µM, first compound 0.316 µM
[40] = second compound 10 µM, first compound 1 µM
[41] = second compound 10 µM, first compound 3.16 µM
[42] = second compound 10 µM, first compound 10 µM
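Further: spheroids exposed to agents for seven days before readout.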
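Wherever viability, T/C is given: 100% = DMSO vehicle control viability.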

## CC(Nc1ccc2c(c1)OCCn1cc(N3C(=O)OCC3C(F)F)nc1-2)C(N)=O (stereo unspecified) + CNC(=O)c1ccc(Nc2nc(OC3CCCC3)c3c(-c4ccc5nc(C)oc5c4)c[nH]c3n2)c(OC)c1
[1]
  IC50: 269 nM
[2]
  IC50: 31.7 nM
[3]
  IC50: < 31.6 nM
[4]
  IC50: < 31.6 nM
[5]
  IC50: < 31.6 nM
[6]
  IC50: < 31.6 nM
[7]
  viability, T/C: 67.3%
[8]
  viability, T/C: 61.1%
[9]
  viability, T/C: 48.2%
[10]
  viability, T/C: 34.2%
[11]
  viability, T/C: 41.8%
[12]
  viability, T/C: 26.5%
[13]
  viability, T/C: 55.7%
[14]
  viability, T/C: 38.5%
[15]
  viability, T/C: 31.9%
[16]
  viability, T/C: 40.5%
[17]
  viability, T/C: 38.2%
[18]
  viability, T/C: 17.7%
[19]
  viability, T/C: 41%
[20]
  viability, T/C: 44.8%
[21]
  viability, T/C: 36.5%
[22]
  viability, T/C: 43.1%
[23]
  viability, T/C: 32.3%
[24]
  viability, T/C: 16.9%
[25]
  viability, T/C: 39.5%
[26]
  viability, T/C: 32.6%
[27]
  viability, T/C: 29.6%
[28]
  viability, T/C: 27.5%
[29]
  viability, T/C: 23.4%
[30]
  viability, T/C: 13.5%
[31]
  viability, T/C: 37.1%
[32]
  viability, T/C: 31.7%
[33]
  viability, T/C: 26.8%
[34]
  viability, T/C: 22.2%
[35]
  viability, T/C: 20.8%
[36]
  viability, T/C: 16.3%
[37]
  viability, T/C: 34.7%
[38]
  viability, T/C: 28.2%
[39]
  viability, T/C: 26.5%
[40]
  viability, T/C: 25.9%
[41]
  viability, T/C: 23.2%
[42]
  viability, T/C: 13.2%

## COc1ccc([C@@H](O)c2cc(-c3ncnc4cc(N5CCOCC5)ccc34)c(F)cc2Cl)nn1 + CN1CCN(c2cc(C(=O)Nc3cc4cc(-c5cnn(C)c5)ccc4cn3)ccn2)CC1
[1]
  IC50: 2100 nM
[2]
  IC50: 314 nM
[3]
  IC50: < 31.6 nM
[4]
  IC50: < 31.6 nM
[5]
  IC50: < 31.6 nM
[6]
  IC50: < 31.6 nM
[7]
  viability, T/C: 95.9%
[8]
  viability, T/C: 88.2%
[9]
  viability, T/C: 68.8%
[10]
  viability, T/C: 71.6%
[11]
  viability, T/C: 37.3%
[12]
  viability, T/C: 27.3%
[13]
  viability, T/C: 86.9%
[14]
  viability, T/C: 61.7%
[15]
  viability, T/C: 48.8%
[16]
  viability, T/C: 42.6%
[17]
  viability, T/C: 34.5%
[18]
  viability, T/C: 22.8%
[19]
  viability, T/C: 27.4%
[20]
  viability, T/C: 22.6%
[21]
  viability, T/C: 21.3%
[22]
  viability, T/C: 15.6%
[23]
  viability, T/C: 13.4%
[24]
  viability, T/C: 7.64%
[25]
  viability, T/C: 5.08%
[26]
  viability, T/C: 4.84%
[27]
  viability, T/C: 10.1%
[28]
  viability, T/C: 7.13%
[29]
  viability, T/C: 6.18%
[30]
  viability, T/C: 5.7%
[31]
  viability, T/C: 7.69%
[32]
  viability, T/C: 7.5%
[33]
  viability, T/C: 9.02%
[34]
  viability, T/C: 9.74%
[35]
  viability, T/C: 6.25%
[36]
  viability, T/C: 6.05%
[37]
  viability, T/C: 2.13%
[38]
  viability, T/C: 3.81%
[39]
  viability, T/C: 3.72%
[40]
  viability, T/C: 1.54%
[41]
  viability, T/C: 2.76%
[42]
  viability, T/C: 1%

## Nc1ccccc1NC(=O)c1ccc(CNC(=O)OCc2cccnc2)cc1
Compound 0.0316 µM
  viability, T/C: 91% and 99.9%
Compound 0.1 µM
  viability, T/C: 87.9% and 94.8%
Compound 0.316 µM
  viability, T/C: 123% and 125%
Compound 1 µM
  viability, T/C: 151% and 140%
Compound 3.16 µM
  viability, T/C: 135% and 121%
Compound 10 µM
  viability, T/C: 52.9% and 43.9%
Curve of compound
  IC50: > 10000 nM and 9090 nM
